Results from ChEMBL document CHEMBL4507288 (2021).
Calls of active or inactive are those of the source. The rule behind the calls is not given here.

Key:
[1] = target: Serine/threonine-protein kinase haspin (Homo sapiens) (UniProt Q8TF76); conditions: Compound concentration 1000.0 nM
[2] = target: Phosphatidylinositol 4,5-bisphosphate 3-kinase catalytic subunit delta isoform (Homo sapiens) (UniProt O00329); conditions: Compound concentration 1000.0 nM
[3] = target: Activin receptor type-2B (Homo sapiens) (UniProt Q13705); conditions: Compound concentration 1000.0 nM
[4] = target: Serine/threonine-protein kinase Nek4 (Homo sapiens) (UniProt P51957); conditions: Compound concentration 1000.0 nM
[5] = target: Calcium-dependent protein kinase 1 (Plasmodium falciparum) (UniProt P62344); conditions: Compound concentration 1000.0 nM
[6] = target: Mitogen-activated protein kinase kinase kinase 1 (Homo sapiens) (UniProt Q13233); conditions: Compound concentration 1000.0 nM
[7] = target: Dual specificity mitogen-activated protein kinase kinase 7 (Homo sapiens) (UniProt O14733); conditions: Compound concentration 1000.0 nM
[8] = test system: Tyrosine-protein kinase ABL1 (Homo sapiens), P00519 [Y253F]; conditions: Compound concentration 1000.0 nM
[9] = target: Calcium/calmodulin-dependent protein kinase type II subunit gamma (Homo sapiens) (UniProt Q13555); conditions: Compound concentration 1000.0 nM
[10] = target: Serine/threonine-protein kinase TNNI3K (Homo sapiens) (UniProt Q59H18); conditions: Compound concentration 1000.0 nM
[11] = target: Tyrosine-protein kinase Lck (Homo sapiens) (UniProt P06239); conditions: Compound concentration 1000.0 nM
[12] = target: Receptor-type tyrosine-protein kinase FLT3 (Homo sapiens) (UniProt P36888); conditions: Compound concentration 1000.0 nM
[13] = target: Calcium/calmodulin-dependent protein kinase type 1G (Homo sapiens) (UniProt Q96NX5); conditions: Compound concentration 1000.0 nM
[14] = target: Serine/threonine-protein kinase Nek1 (Homo sapiens) (UniProt Q96PY6); conditions: Compound concentration 1000.0 nM
[15] = target: Dual specificity protein kinase CLK3 (Homo sapiens) (UniProt P49761); conditions: Compound concentration 1000.0 nM
[16] = target: Atypical kinase COQ8A, mitochondrial (Homo sapiens) (UniProt Q8NI60); conditions: Compound concentration 1000.0 nM
[17] = target: MAP kinase-interacting serine/threonine-protein kinase 2 (Homo sapiens) (UniProt Q9HBH9); conditions: Compound concentration 1000.0 nM
[18] = target: Tyrosine-protein kinase Mer (Homo sapiens) (UniProt Q12866); conditions: Compound concentration 1000.0 nM
[19] = test system: Receptor-type tyrosine-protein kinase FLT3 (Homo sapiens), P36888 [K663Q]; conditions: Compound concentration 1000.0 nM
[20] = target: Dual specificity tyrosine-phosphorylation-regulated kinase 1A (Homo sapiens) (UniProt Q13627); conditions: Compound concentration 1000.0 nM
[21] = target: Glycogen synthase kinase-3 alpha (Homo sapiens) (UniProt P49840); conditions: Compound concentration 1000.0 nM
[22] = target: Cyclin-dependent kinase 7 (Homo sapiens) (UniProt P50613); conditions: Compound concentration 1000.0 nM
[23] = target: Aurora kinase B (Homo sapiens) (UniProt Q96GD4); conditions: Compound concentration 1000.0 nM
[24] = target: Serine/threonine-protein kinase 10 (Homo sapiens) (UniProt O94804); conditions: Compound concentration 1000.0 nM
[25] = target: cGMP-dependent protein kinase 1 (Homo sapiens) (UniProt Q13976); conditions: Compound concentration 1000.0 nM
[26] = test system: ALK tyrosine kinase receptor (Homo sapiens), Q9UM73 [L1196M]; conditions: Compound concentration 1000.0 nM
[27] = target: Tyrosine-protein kinase ABL1 (Homo sapiens) (UniProt P00519); conditions: Compound concentration 1000.0 nM
[28] = target: Vascular endothelial growth factor receptor 2 (Homo sapiens) (UniProt P35968); conditions: Compound concentration 1000.0 nM
[29] = target: Dual specificity protein kinase CLK4 (Homo sapiens) (UniProt Q9HAZ1); conditions: Compound concentration 1000.0 nM
[30] = target: G protein-coupled receptor kinase 4 (Homo sapiens) (UniProt P32298); conditions: Compound concentration 1000.0 nM
[31] = target: Tyrosine-protein kinase Lyn (Homo sapiens) (UniProt P07948); conditions: Compound concentration 1000.0 nM
[32] = target: Amyloid-beta precursor protein (Homo sapiens, UniProt P05067); assay: Radioligand Binding Assay
[33] = target: MAP/microtubule affinity-regulating kinase 3 (Homo sapiens) (UniProt P27448); conditions: Compound concentration 1000.0 nM
[34] = target: Fibroblast growth factor receptor 1 (Homo sapiens) (UniProt P11362); conditions: Compound concentration 1000.0 nM
[35] = target: 5-hydroxytryptamine receptor 1E (Homo sapiens) (UniProt P28566); conditions: Compound concentration 10.0 uM
[36] = target: Platelet-derived growth factor receptor beta (Homo sapiens) (UniProt P09619); conditions: Compound concentration 1000.0 nM
[37] = target: Death-associated protein kinase 1 (Homo sapiens) (UniProt P53355); conditions: Compound concentration 1000.0 nM
[38] = test system: Mast/stem cell growth factor receptor Kit (Homo sapiens), P10721 [D816V]; conditions: Compound concentration 1000.0 nM
[39] = target: Serine/threonine-protein kinase Nek7 (Homo sapiens) (UniProt Q8TDX7); conditions: Compound concentration 1000.0 nM
[40] = target: Membrane-associated tyrosine- and threonine-specific cdc2-inhibitory kinase (Homo sapiens) (UniProt Q99640); conditions: Compound concentration 1000.0 nM
[41] = target: Receptor tyrosine-protein kinase erbB-3 (Homo sapiens) (UniProt P21860); conditions: Compound concentration 1000.0 nM
[42] = target: Serine/threonine-protein kinase 16 (Homo sapiens) (UniProt O75716); conditions: Compound concentration 1000.0 nM
[43] = target: Ribosomal protein S6 kinase alpha-1 (Homo sapiens) (UniProt Q15418); conditions: Compound concentration 1000.0 nM
[44] = target: Dual specificity protein kinase CLK2 (Homo sapiens) (UniProt P49760); conditions: Compound concentration 1000.0 nM
[45] = target: Serine/threonine-protein kinase PLK4 (Homo sapiens) (UniProt O00444); conditions: Compound concentration 1000.0 nM

Chain of Ribosomal protein S6 kinase alpha-1 (Homo sapiens) (Q15418 whole entry): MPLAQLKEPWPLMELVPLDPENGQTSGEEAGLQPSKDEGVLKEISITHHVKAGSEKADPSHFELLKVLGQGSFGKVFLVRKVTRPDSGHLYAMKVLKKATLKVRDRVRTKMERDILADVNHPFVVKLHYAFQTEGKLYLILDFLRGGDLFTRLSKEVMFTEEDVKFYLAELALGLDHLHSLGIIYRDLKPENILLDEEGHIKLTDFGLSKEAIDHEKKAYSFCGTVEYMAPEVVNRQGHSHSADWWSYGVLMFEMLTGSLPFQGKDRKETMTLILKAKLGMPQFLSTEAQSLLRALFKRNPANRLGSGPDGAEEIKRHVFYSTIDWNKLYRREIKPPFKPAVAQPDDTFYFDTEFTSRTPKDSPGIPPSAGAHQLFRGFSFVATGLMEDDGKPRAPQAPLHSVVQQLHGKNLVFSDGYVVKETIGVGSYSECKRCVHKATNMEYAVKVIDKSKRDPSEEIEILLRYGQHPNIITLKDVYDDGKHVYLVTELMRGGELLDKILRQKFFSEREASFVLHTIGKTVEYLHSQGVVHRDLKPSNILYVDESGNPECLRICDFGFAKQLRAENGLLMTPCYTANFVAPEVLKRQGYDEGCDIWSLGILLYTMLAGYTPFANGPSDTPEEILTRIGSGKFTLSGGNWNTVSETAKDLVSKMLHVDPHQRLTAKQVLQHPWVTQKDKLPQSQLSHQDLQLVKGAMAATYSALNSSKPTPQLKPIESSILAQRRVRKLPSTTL
Chain of Phosphatidylinositol 4,5-bisphosphate 3-kinase catalytic subunit delta isoform (Homo sapiens) (O00329 whole entry, canonical isoform): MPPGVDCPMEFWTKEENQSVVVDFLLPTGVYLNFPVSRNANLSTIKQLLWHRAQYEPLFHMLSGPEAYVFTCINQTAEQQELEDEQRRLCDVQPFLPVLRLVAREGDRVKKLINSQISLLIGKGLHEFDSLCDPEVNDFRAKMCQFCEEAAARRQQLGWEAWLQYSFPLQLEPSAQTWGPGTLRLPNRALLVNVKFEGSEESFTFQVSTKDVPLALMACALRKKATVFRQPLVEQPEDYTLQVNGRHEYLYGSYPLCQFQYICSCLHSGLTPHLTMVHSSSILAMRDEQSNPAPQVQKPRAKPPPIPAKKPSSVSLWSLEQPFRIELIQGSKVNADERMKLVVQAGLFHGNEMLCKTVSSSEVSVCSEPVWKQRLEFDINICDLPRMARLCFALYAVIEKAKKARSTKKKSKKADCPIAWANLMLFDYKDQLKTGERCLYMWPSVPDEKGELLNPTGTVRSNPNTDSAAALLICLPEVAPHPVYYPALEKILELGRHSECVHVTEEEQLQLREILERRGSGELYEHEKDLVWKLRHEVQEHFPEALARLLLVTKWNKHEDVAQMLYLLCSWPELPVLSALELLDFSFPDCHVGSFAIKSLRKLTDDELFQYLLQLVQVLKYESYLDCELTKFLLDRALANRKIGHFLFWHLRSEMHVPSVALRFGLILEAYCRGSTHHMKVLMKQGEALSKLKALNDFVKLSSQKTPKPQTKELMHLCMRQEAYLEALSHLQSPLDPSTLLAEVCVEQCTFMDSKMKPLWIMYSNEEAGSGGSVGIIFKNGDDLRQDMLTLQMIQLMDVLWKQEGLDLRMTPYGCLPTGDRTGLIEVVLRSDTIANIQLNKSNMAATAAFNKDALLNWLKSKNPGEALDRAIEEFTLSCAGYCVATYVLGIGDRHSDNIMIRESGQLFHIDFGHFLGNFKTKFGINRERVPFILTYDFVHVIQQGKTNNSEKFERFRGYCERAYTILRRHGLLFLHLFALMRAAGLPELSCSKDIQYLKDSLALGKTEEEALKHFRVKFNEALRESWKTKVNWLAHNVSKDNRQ
Chain of Membrane-associated tyrosine- and threonine-specific cdc2-inhibitory kinase (Homo sapiens) (Q99640 whole entry): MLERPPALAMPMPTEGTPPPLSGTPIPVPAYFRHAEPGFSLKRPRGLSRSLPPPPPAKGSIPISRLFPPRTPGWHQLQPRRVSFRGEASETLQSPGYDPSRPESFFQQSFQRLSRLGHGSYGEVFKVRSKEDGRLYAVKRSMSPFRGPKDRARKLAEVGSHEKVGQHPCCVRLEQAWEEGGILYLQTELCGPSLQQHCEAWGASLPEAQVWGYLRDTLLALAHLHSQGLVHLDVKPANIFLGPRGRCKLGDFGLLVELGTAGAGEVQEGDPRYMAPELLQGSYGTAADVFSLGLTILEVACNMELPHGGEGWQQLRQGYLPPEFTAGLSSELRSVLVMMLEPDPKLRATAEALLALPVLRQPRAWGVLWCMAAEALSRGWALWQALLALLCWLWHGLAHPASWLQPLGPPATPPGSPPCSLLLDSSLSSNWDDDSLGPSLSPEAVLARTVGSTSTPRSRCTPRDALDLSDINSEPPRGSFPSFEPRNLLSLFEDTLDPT
Chain of MAP kinase-interacting serine/threonine-protein kinase 2 (Homo sapiens) (Q9HBH9 whole entry, looked up): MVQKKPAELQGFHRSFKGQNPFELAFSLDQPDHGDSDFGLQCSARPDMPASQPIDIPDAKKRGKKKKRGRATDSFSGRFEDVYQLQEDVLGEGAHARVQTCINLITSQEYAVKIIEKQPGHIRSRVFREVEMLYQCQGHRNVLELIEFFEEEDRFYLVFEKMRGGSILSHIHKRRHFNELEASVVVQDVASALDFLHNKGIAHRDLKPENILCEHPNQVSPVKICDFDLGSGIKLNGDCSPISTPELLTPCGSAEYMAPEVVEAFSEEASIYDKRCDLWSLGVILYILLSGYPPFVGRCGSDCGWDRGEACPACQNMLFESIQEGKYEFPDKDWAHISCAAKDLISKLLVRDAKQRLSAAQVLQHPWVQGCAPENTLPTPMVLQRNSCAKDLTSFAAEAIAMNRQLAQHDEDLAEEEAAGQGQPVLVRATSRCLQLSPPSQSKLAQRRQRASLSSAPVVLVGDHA
Chain of Serine/threonine-protein kinase Nek7 (Homo sapiens) (Q8TDX7 whole entry, looked up): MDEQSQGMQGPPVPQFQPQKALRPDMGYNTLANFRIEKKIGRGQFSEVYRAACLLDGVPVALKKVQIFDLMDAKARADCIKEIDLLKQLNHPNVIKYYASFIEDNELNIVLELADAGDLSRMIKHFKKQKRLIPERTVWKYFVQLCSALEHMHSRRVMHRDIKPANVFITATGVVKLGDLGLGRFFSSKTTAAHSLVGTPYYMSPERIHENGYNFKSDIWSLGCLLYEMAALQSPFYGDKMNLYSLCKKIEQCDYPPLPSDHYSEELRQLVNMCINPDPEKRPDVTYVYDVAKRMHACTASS
Chain of Dual specificity protein kinase CLK4 (Homo sapiens) (Q9HAZ1 whole entry, looked up): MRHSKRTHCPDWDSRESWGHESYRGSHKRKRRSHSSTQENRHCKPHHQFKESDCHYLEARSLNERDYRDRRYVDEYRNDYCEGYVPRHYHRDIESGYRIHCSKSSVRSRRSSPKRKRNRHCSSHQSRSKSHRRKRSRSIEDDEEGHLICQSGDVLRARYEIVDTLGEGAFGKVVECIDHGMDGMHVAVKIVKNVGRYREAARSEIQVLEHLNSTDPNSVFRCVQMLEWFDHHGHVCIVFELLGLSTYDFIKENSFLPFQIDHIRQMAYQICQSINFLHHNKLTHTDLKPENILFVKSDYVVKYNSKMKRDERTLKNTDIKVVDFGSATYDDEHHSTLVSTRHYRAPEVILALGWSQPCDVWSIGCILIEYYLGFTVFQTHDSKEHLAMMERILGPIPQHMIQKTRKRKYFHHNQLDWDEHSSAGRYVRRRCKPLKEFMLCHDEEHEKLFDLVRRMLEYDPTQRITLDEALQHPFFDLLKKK
Chain of Fibroblast growth factor receptor 1 (Homo sapiens) (P11362 22-822 limits assumed): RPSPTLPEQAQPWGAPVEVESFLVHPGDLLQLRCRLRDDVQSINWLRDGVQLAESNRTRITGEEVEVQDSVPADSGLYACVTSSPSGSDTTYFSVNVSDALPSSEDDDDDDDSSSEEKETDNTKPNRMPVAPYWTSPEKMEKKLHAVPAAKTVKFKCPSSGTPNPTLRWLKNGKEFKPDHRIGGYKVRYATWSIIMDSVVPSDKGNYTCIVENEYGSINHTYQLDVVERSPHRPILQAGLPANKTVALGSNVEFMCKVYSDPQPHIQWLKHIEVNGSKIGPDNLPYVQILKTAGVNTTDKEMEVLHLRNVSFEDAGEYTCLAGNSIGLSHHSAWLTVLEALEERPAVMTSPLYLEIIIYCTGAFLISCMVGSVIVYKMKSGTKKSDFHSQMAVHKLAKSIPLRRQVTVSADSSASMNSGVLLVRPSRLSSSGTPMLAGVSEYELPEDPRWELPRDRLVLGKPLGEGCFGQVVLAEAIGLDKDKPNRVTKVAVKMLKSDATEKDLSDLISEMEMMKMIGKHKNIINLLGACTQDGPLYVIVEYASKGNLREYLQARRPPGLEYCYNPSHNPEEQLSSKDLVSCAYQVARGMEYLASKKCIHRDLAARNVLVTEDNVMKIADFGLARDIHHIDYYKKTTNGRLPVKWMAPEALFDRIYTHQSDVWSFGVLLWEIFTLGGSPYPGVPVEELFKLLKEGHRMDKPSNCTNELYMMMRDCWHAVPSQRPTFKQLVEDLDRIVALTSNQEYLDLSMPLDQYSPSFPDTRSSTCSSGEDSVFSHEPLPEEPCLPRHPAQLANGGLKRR
Chain of Tyrosine-protein kinase Lyn (Homo sapiens) (P07948 2-512 limits assumed): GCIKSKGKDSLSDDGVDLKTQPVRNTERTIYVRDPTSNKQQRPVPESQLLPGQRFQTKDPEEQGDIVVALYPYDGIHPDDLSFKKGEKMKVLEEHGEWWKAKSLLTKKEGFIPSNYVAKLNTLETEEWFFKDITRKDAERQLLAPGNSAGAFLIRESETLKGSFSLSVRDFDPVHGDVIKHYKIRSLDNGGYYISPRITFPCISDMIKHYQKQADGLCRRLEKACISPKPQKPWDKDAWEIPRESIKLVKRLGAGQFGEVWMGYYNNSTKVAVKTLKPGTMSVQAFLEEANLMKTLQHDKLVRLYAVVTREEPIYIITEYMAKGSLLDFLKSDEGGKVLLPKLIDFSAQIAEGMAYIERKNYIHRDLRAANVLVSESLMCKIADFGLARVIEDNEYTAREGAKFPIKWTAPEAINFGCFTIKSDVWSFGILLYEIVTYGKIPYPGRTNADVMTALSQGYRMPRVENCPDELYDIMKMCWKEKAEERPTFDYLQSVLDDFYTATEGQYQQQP

O=S(=O)(NC1CCC(c2cc(F)ccc2F)(S(=O)(=O)c2ccc(Cl)cc2)CC1)C(F)(F)F (stereo not given) [MRK-560]
residual activity [1]: 69% | residual activity [2]: 100% | residual activity [3]: 95% | residual activity [4]: 100% | residual activity [5]: 100% | residual activity [6]: 100% | residual activity [7]: 100% | residual activity [8]: 100% | residual activity [9]: 100% | residual activity [10]: 100% | residual activity [11]: 100% | residual activity [12]: 100% | residual activity [13]: 100% | residual activity [14]: 100% | residual activity [15]: 86% | residual activity [16]: 99% | residual activity [17]: 57% | residual activity [18]: 99% | residual activity [19]: 97% | residual activity [20]: 78% | residual activity [21]: 87% | residual activity [22]: 100% | residual activity [23]: 100% | residual activity [24]: 100% | residual activity [25]: 100% | residual activity [26]: 94% | residual activity [27]: 88% | residual activity [28]: 100% | residual activity [29]: 84% | residual activity [30]: 100% | residual activity [31]: 91% | IC50 [32]: 650 pM (active) | residual activity [33]: 79% | residual activity [34]: 100% | inhibition [35]: -8.31% | residual activity [36]: 100% | residual activity [37]: 95% | residual activity [38]: 92% | residual activity [39]: 100% | residual activity [40]: 100% | residual activity [41]: 93% | residual activity [42]: 97% | residual activity [43]: 90% | residual activity [44]: 100% | residual activity [45]: 100%
